Data reported in patent US8742167B2, “Therapeutic formulations based on asiatic acid and selected salts thereof” (Shanghai Institute of Pharmaceutical Industry, priority 2008, dated 2014).
≈ marks a conversion by molar mass, not a printed value. Where “and” joins values, the source holds several entries; their conditions need not be identical. Equal values may be shown once. Entries after “also recorded” stand apart in the source; their conditions may differ. Read-outs that look alike come from different tables or passages of the source. Marks after values point to notes of the source that are not given here.

How the values were obtained:
Hydroxyproline = assay: Measured value of hydroxyproline in experiment of asiatic acid antagonizing fibrosis; assay type: in vivo, SD rats; design: Measured Value of Hydroxyproline (on 2nd day), single animals / Measured Value of Hydroxyproline (on 2nd day), X / Measured Value of Hydroxyproline (on 7th day), single animals / Measured Value of Hydroxyproline (on 7th day), X: unit not given here; settings: for Measured Value of Hydroxyproline (on 2nd day), X / Measured Value of Hydroxyproline (on 7th day), X: group mean; for Measured Value of Hydroxyproline (on 2nd day), single animals / Measured Value of Hydroxyproline (on 7th day), single animals: individual rats 1-10
Experimental: (§1) Male SD rats, body weight 250-300 g. The animals were anesthetized with 3% seconal, laid flat and fixed onto the operating table. The necks of the animals were disinfected with alcohol and cut to expose tracheae. A needle was inserted via the space between tracheal rings centripetally, and 5 mg/kg of bleomycin was injected. The rats were kept upright and rotated, in order to keep the solution uniformly distributed in the lungs. Then the incisions were sutured.
(§2) After the rats regained consciousness, they were randomly grouped. The animals were divided into (i) a group receiving administration on the next day after establishing the model and (ii) a group receiving administration at 7 days after the model was established. Included were 27, 9, and 3 mg/kg p.o.×28 d asiatic acid groups, 0.6 mg/kg p.o.×28 d dexamethasone group, 36 mg/kg p.o.×28 d asiaticoside group, model group, and blank group. Normal saline was administered for the model and blank groups. On the 28th day after asiatic acid and asiaticoside administration, survival and weight ratio of lungs were measured; pathological examination and serological examination were performed.

TFG-β = assay: Serological test (ELISA kit) of TFG-β in rats of bleomycin-induced pulmonary fibrosis; assay type: in vivo, SD rats; settings: for TFG-β (2nd day) X ± SD / TFG-β (7th day) X ± SD: serum; for TFG-β (2nd day) X ± SD: dosing from 2nd day; for TFG-β (7th day) X ± SD: dosing from 7th day; for serum levels of TGF-β (words): treatment initiated one day or seven days after bleomycin
Experimental: TFG-β Kit, Human 96T ELISA kit imported by Shanghai Jingmei
as §1, §2
(§3) Serum samples were prepared according to a standard protocol (centrifuged 3000 rpm, 10 minutes after collection) and were stored at −20° C. Testing was conducted in accordance with kit instructions.

[1] = system: bleomycin-induced pulmonary fibrosis in rats; assay: Lung weight index of bleomycin-induced pulmonary fibrosis in rats; assay type: in vivo, SD rats; settings: for lung weight ratio (%): (lung weight/body weight)x100%
Experimental: as §1, §2
Effect of on lung weight index of bleomycin-induced pulmonary fibrosis in rats treated with asiatic acid Body weight and lung weight were measured after the rats were sacrificed. Lung weight ratio=(lung weight/body weight)×100%.

[2] = system: pulmonary fibrosis induced by bleomycin in rats; assay: Pathological analysis of lung (HE staining; collagen fiber and elastic fiber dual staining); assay type: in vivo, SD rats; settings: for collagen fiber and elastic fiber staining / lung pathology, HE staining: administration on the next day after establishing model
Experimental: as §1, §2
The lung tissues were fixed in 10% formalin for 1 week. […] The thickness of sections was […]. Routine hematoxylin-eosin (HE) staining was performed. Dual special staining of collagen fibers and elastic fibers were conducted in order to detect the degree of fibrosis. The staining of the two groups of sections was observed and the results were as follows.

TNF-α = assay: Serological test (ELISA kit) of TNF-α in rats of bleomycin-induced pulmonary fibrosis; assay type: in vivo, SD rats; settings: for TNF-α (2nd day) X ± SD / TNF-α (7th day) X ± SD: serum; for TNF-α (2nd day) X ± SD: dosing from 2nd day; for TNF-α (7th day) X ± SD: dosing from 7th day; for serum levels of TNF-α (words): treatment initiated one day or seven days after bleomycin
Experimental: TNF-α Kit, Human 96T ELISA kit imported by Shanghai Jingmei
as §1, §2, §3

[3] = Solubility in water and methanol (saturated solutions, HPLC); assay type: physicochemical
Experimental: Approximately 5 mg of asiatic acid were transferred into a 25 mL volumetric flask, and 1 mL, of methanol was added and mixed well, until the acid had dissolved in the methanol. The volumetric flask then was brought to volume with mobile phase and mixed well. [table] Saturated solutions obtained from starting material and salt in methanol and water were filtered and diluted accordingly with mobile phase. No dilution was performed for asiatic acid in water. Samples were prepared in triplicate except for the sodium salt prepared in methanol, for which two preparations were done.

[4] = system: bleomycin-induced pulmonary fibrosis in rats; assay: Mortality during experiment days 7-28, bleomycin-induced pulmonary fibrosis in rats; assay type: in vivo, SD rats
Experimental: as §1, §2

Type III collagen = Type III collagen content, bleomycin rat model; assay type: in vivo, SD rats; settings: for Type III collagen content X ± SD: treatment starting on Day 7
Experimental: as §1, §2

[5] = asiatic acid high dose (27 mg/kg)
[6] = asiatic acid low dose (3 mg/kg)
[7] = asiatic acid middle dose (9 mg/kg)

C[C@H]1[C@H](C)CC[C@]2(C(=O)O)CC[C@]3(C)C(=CC[C@@H]4[C@@]5(C)C[C@@H](O)[C@H](O)[C@@](C)(CO)[C@@H]5CC[C@]43C)[C@H]12 [Asiatic acid, asiatic acid]
Measured Value of Hydroxyproline (on 2nd day), X (Hydroxyproline; asiatic acid 3 mg/kg): 24.31 | Measured Value of Hydroxyproline (on 7th day), X (Hydroxyproline; asiatic acid 3 mg/kg): 25.65 | Measured Value of Hydroxyproline (on 2nd day), single animals (Hydroxyproline; asiatic acid 3 mg/kg): 19.57 and 28.21 and 24.03 and 19.66 and 25.61 and 26.55 and 26.34 and 24.09 and 19.07 and 29.99 | Measured Value of Hydroxyproline (on 7th day), single animals (Hydroxyproline; asiatic acid 3 mg/kg): 20.31 and 27.14 and 28.27 and 26.14 and 28.01 and 29.34 and 25.07 and 25.36 and 25.47 and 21.37 | Measured Value of Hydroxyproline (on 2nd day), X (Hydroxyproline; asiatic acid 9 mg/kg): 22.94 | Measured Value of Hydroxyproline (on 7th day), X (Hydroxyproline; asiatic acid 9 mg/kg): 25.21 | Measured Value of Hydroxyproline (on 2nd day), single animals (Hydroxyproline; asiatic acid 9 mg/kg): 28.26 and 15.05 and 29.14 and 28.98 and 27.69 and 19.03 and 19.46 and 18.22 and 24.01 and 19.56 | Measured Value of Hydroxyproline (on 7th day), single animals (Hydroxyproline; asiatic acid 9 mg/kg): 28.19 and 24.39 (2×) and 27.98 and 28.36 and 19.36 and 24.64 and 25.66 and 29.47 and 19.66 | Measured Value of Hydroxyproline (on 2nd day), X (Hydroxyproline; asiatic acid 27 mg/kg): 21.65 | Measured Value of Hydroxyproline (on 7th day), X (Hydroxyproline; asiatic acid 27 mg/kg): 23.40 | Measured Value of Hydroxyproline (on 2nd day), single animals (Hydroxyproline; asiatic acid 27 mg/kg): 17.64 and 25.36 and 25.18 and 24.36 and 20.19 and 18.6 and 19.36 and 20.97 and 27.69 and 17.11 | Measured Value of Hydroxyproline (on 7th day), single animals (Hydroxyproline; asiatic acid 27 mg/kg): 19.68 and 19.47 and 20.14 and 24.36 (2×) and 27.14 and 25.1 and 26.38 and 27.66 and 19.74 | serum levels of hydroxyproline (Hydroxyproline; overall statement): significantly decrease bleomycin-induced fibrosis | TFG-β (2nd day) X ± SD (TFG-β; asiatic acid 3 mg/kg): 0.726 ± 0.220 OD value | TFG-β (7th day) X ± SD (TFG-β; asiatic acid 3 mg/kg): 1.494 ± 0.273 OD value | TFG-β (2nd day) X ± SD (TFG-β; asiatic acid 9 mg/kg): 0.642 ± 0.139 OD value | TFG-β (7th day) X ± SD (TFG-β; asiatic acid 9 mg/kg): 1.165 ± 0.412 OD value | TFG-β (2nd day) X ± SD (TFG-β; asiatic acid 27 mg/kg): 0.653 ± 0.157 OD value | TFG-β (7th day) X ± SD (TFG-β; asiatic acid 27 mg/kg): 1.049 ± 0.363 OD value | serum levels of TGF-β (words) (TFG-β): significantly reduces | serum levels of TGF-β (words) (TFG-β; listed as asiatic acid): can lower | lung weight ratio (%) ([1]; asiatic acid 3 mg/kg, started 7 day after model established): 0.83** % | lung weight ratio (%) ([1]; asiatic acid 3 mg/kg, started from the second day): 0.84** % | lung weight ratio (%) ([1]; asiatic acid 9 mg/kg, started 7 day after model established): 0.82** % | lung weight ratio (%) ([1]; asiatic acid 9 mg/kg, started from the second day): 0.78** % | lung weight ratio (%) ([1]; asiatic acid 27 mg/kg, started 7 day after model established): 0.73** % | lung weight ratio (%) ([1]; asiatic acid 27 mg/kg, started from the second day): 0.69** % | lung weight (g) X ± SD ([1]; asiatic acid 3 mg/kg, 28-day administration started 7 day after model established): 2.64 ± 0.33 g | lung weight (g) X ± SD ([1]; asiatic acid 3 mg/kg, 28-day administration started from the second day): 2.74 ± 0.54 g | lung weight (g) X ± SD ([1]; asiatic acid 9 mg/kg, 28-day administration started 7 day after model established): 2.69 ± 0.53 g | lung weight (g) X ± SD ([1]; asiatic acid 9 mg/kg, 28-day administration started from the second day): 2.49 ± 0.40 g | lung weight (g) X ± SD ([1]; asiatic acid 27 mg/kg, 28-day administration started 7 day after model established): 2.52 ± 0.25 g | lung weight (g) X ± SD ([1]; asiatic acid 27 mg/kg, 28-day administration started from the second day): 2.41 ± 0.38 g | lung weight to body weight ratio ([1]; starting on 2nd or 7th day, compared with the model group): significantly lower; also recorded: significantly decrease bleomycin-induced lung fibrosis | collagen fiber and elastic fiber staining [2, 5]: only a little fibroplastic proliferation | lung pathology, HE staining [2, 5]: mild infiltration of inflammatory cells | efficacy by pathology compared with asiaticoside group ([2]; asiatic acid high-dose group): better than in the asiaticoside group | lung pathology, HE staining [2, 6]: mild inflammation and alveolitis | collagen fiber and elastic fiber staining [2, 7]: significantly milder than that of the model group | lung pathology, HE staining [2, 7]: mild infiltration of inflammatory cells | bleomycin-induced lung fibrosis by lung histopathology ([2]; overall statement): effective against bleomycin-induced pulmonary fibrosis, on a dose-response basis; also recorded: reduces the extent of bleomycin-induced lung fibrosis | lung fibrosis by histopathology compared with dexamethasone ([2]; treatment initiated seven days after bleomycin insult): more effective than dexamethasone | TNF-α (2nd day) X ± SD (TNF-α; asiatic acid 3 mg/kg): 0.055 ± 0.008 OD value | TNF-α (7th day) X ± SD (TNF-α; asiatic acid 3 mg/kg): 0.084 ± 0.018 OD value | TNF-α (2nd day) X ± SD (TNF-α; asiatic acid 9 mg/kg): 0.056 ± 0.016 OD value | TNF-α (7th day) X ± SD (TNF-α; asiatic acid 9 mg/kg): 0.096 ± 0.036 OD value | TNF-α (2nd day) X ± SD (TNF-α; asiatic acid 27 mg/kg): 0.050 ± 0.007 OD value | TNF-α (7th day) X ± SD (TNF-α; asiatic acid 27 mg/kg): 0.047 ± 0.013 OD value | serum levels of TNF-α (words) (TNF-α): significantly reduces | serum levels of TNF-α (words) (TNF-α; listed as asiatic acid): can lower | Solubility ([3]; MeOH, single preparations (inj 1A-1C), listed as Asiatic acid raw material): 37200 µg/mL and 34870 µg/mL | solubility in methanol ([3]; methanol): good solubility | Solubility ([3]; methanol, organic solvent or mixture, thermodynamic from solid, MeOH, single preparations (inj 1A-1C), read-out: Solubility): 27200 µg/mL (≈ 55700 µM) | Solubility ([3]; water, thermodynamic from solid, water, read-out: Solubility in water): 30 µg/mL (≈ 61.4 µM) | Solubility ([3]; water, thermodynamic from solid, water, single preparations (inj 1A-1C), read-out: Solubility): 30 µg/mL (≈ 61.4 µM) | Solubility ([3]; water, single preparations (inj 1A-1C), listed as Asiatic acid raw material): 40 µg/mL and 20 µg/mL | remaining samples at the end of study ([4]; Asiatic acid-H (27 mg/kg p.o. x 28 d), dosing started on 2nd day, 13 on day 7): 13 | number of deaths ([4]; Asiatic acid-H (27 mg/kg p.o. x 28 d), dosing started on 2nd day, days 7-28): 0 | number of deaths ([4]; Asiatic acid-H (27 mg/kg p.o. x 28 d), dosing started on 7th day): 0 | remaining samples at the end of study ([4]; Asiatic acid-H (27 mg/kg p.o. x 28 d), dosing started on 7th day, 13 in the group): 13 | remaining samples at the end of study ([4]; Asiatic acid-L (3 mg/kg p.o. x 28 d), dosing started on 2nd day, 13 on day 7): 11 | number of deaths ([4]; Asiatic acid-L (3 mg/kg p.o. x 28 d), dosing started on 2nd day, days 7-28): 2 | number of deaths ([4]; Asiatic acid-L (3 mg/kg p.o. x 28 d), dosing started on 7th day): 1 | remaining samples at the end of study ([4]; Asiatic acid-L (3 mg/kg p.o. x 28 d), dosing started on 7th day, 13 in the group): 12 | remaining samples at the end of study ([4]; Asiatic acid-M (9 mg/kg p.o. x 28 d), dosing started on 2nd day, 14 on day 7): 13 | number of deaths ([4]; Asiatic acid-M (9 mg/kg p.o. x 28 d), dosing started on 2nd day, days 7-28): 1 | number of deaths ([4]; Asiatic acid-M (9 mg/kg p.o. x 28 d), dosing started on 7th day): 1 | remaining samples at the end of study ([4]; Asiatic acid-M (9 mg/kg p.o. x 28 d), dosing started on 7th day, 13 in the group): 12 | survival / bleomycin-induced death ([4]; rats treated with bleomycin, treatment initiated one day or seven days after bleomycin): largely prevented bleomycin-induced death; also recorded: significantly enhance survival | Type III collagen content X ± SD (Type III collagen; asiatic acid Medium dose (9 mg/kg)): 0.515 ± 0.398 | Type III collagen content X ± SD (Type III collagen; [5]): 0.387 ± 0.287 | Type III collagen content X ± SD (Type III collagen; [6]): 0.764 ± 0.826 | serum levels of type III collagen (Type III collagen; overall statement): significantly decrease bleomycin-induced fibrosis
